{"source": "patent US10011573B2", "about": "“Human androgen receptor DNA-binding domain (DBD) compounds as therapeutics and methods for their use” (The University of British Columbia, priority 2014, dated 2018)", "key": {"[1]": {"target": "T1, AR hormone binding site (recombinant wild type LBD) (Rattus norvegicus, UniProt P15207)", "T1 construct": "displace DHT from the ABS site of recombinant wild type LBD", "T1 sequence (P15207 651-882 limits assumed)": "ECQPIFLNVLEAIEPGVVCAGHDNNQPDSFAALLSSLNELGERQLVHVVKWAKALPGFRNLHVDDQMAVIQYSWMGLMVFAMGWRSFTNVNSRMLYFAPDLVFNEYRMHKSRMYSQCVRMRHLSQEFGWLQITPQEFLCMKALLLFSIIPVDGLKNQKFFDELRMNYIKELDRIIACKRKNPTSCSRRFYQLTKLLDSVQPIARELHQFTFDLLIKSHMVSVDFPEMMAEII", "assay": "Androgen displacement assay (Polar Screen Androgen Receptor Competitor Green Assay Kit)", "conditions": "fluorescence polarization", "procedure": "5. Androgen displacement assay: The androgen displacement was assessed with the Polar Screen Androgen Receptor Competitor Green Assay Kit as per the instructions of the manufacturer (Lack, Axerio-Cilies et al. 2011).\nThe ability of the above chemicals to displace DHT from the ABS site of recombinant wild type LBD was measured using a fluorescent polarization assay (PolarScreen™, Life Technologies) at various concentrations."}, "androgen receptor (AR)": {"target": "T2, androgen receptor (AR) (Homo sapiens, UniProt P10275, T878A)", "T2 sequence (P10275 1-920 T878A)": "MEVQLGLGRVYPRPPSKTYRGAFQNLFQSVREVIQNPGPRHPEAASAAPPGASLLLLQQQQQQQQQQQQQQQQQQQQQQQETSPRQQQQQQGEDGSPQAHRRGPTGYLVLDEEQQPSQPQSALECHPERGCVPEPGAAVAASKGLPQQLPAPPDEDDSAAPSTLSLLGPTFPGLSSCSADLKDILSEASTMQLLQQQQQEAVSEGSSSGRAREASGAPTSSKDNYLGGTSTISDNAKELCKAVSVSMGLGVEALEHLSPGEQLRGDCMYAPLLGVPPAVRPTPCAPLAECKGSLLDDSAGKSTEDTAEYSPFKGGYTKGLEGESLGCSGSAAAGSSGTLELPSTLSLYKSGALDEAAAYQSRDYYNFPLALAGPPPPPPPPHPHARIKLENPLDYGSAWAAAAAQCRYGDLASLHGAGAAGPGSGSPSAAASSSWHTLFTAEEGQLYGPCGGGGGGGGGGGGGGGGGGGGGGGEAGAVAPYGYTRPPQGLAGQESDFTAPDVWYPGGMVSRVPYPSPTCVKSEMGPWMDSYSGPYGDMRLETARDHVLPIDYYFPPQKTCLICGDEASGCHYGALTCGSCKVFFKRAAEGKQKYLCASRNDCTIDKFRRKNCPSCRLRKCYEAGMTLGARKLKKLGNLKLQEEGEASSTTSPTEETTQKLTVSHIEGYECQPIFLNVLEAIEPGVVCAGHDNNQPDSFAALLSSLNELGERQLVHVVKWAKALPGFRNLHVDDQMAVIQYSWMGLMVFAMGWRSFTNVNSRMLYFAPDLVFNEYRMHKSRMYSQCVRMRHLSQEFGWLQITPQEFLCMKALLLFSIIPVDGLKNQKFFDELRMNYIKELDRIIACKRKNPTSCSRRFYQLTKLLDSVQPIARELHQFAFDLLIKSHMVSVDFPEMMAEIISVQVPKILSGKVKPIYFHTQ", "assay": "eGFP cellular AR transcription assay (LNCaP eGFP cells, LN-ARR2PB-eGFP)", "conditions": "for anti-AR activity (AR transcriptional inhibition) in words: LNCaP (T877A AR); for partial agonistic effect: LNCaP eGFP cells"}, "PSA [2]": {"system": "PSA", "assay": "Prostate-specific antigen (PSA) assay, secreted PSA from the eGFP assay plates", "type": "cell-based, human", "conditions": "Homo sapiens", "procedure": "3. Prostate-specific antigen (PSA) assay: The evaluation of PSA levels secreted into the media was performed in parallel to the eGFP assay using the same plates. After cells were incubated for 3 days, 150 μl of the media was taken from each well, and added to 150 μl of PBS."}, "AR DBD": {"target": "AR DBD (Homo sapiens, UniProt P10275)"}, "[3]": {"target": "T3, AR(1-653) truncation mutant (Homo sapiens, UniProt P10275)", "T3 construct": "host or cells: PC3 co-transfected with ARR3tk-luciferase", "conditions": "25 μM, PC3 cells, ARR3tk-luciferase; cited from earlier work"}, "FKBP5 [4]": {"system": "FKBP5", "assay": "Western blot FKBP5 protein in R1-D567 cells", "type": "cell-based, human", "procedure": "(§1) Cell lysates (40 μl) from luciferase assays (96-well plate) were separated on a 10% SDS-polyacrylamide mini gel. Protein was transferred to methanol-charged PVDF membranes and probed with anti-AR441 (mouse, Sigma™) monoclonal primary antibody. Blots were also probed with polyclonal anti-actin (rabbit, Sigma™) to show equal loading and polyclonal anti-PARP/anti-cleaved PARP (rabbit, Sigma™) to test for induction of apoptosis. Lysates from CWR-R1 cells were additionally probed with polyclonal anti-FKBP5 (rabbit, Sigma™) following 2 days of incubation with compounds."}, "PSA [5]": {"system": "PSA", "assay": "PSA measurements, LNCaP cells, 1 nM R1881, 2 days", "type": "cell-based, human", "procedure": "Following the incubation period, 150 μl of the media was taken from each well, and PSA levels were quantified using a Cobas e411 analyzer (Roche Applied Science™) according to the manufacturer's instructions. The same instrument was used to analyze serum PSA from mice during the in vivo analysis."}, "FKBP5 [6]": {"system": "FKBP5", "assay": "Western blot FKBP5 protein in R1-AD1 cells", "type": "cell-based, human", "procedure": "as §1"}, "ER-α": {"target": "T4, ER-α (Homo sapiens, UniProt P03372)", "T4 construct": "endogenous in cells; host or cells: MCF-7 with ERE-luciferase reporter", "assay": "Estrogen-response element-luciferase assay in MCF-7 cells", "type": "cell-based", "procedure": "(§2) 9. Transient Transfection: The PC3/MCF7 cells were seeded into a 96-well plate (2,000 cells/well). After 24 hrs, the wild-type AR (50 ng/well)/AR mutants and AR3TK-luciferase plasmids (1:3) were co-transfected into PC3 cells or ERE-luciferase (50 ng/well) was transfected into MCF7 cells using transfection reagent TT20. 24 hrs after the transfection, the cells were treated with the compounds at various concentrations. And 24 hrs later, the cells were lysed and the reading was taken using a luminometer."}, "full-length human AR": {"target": "T5, full-length human AR (Homo sapiens, UniProt P10275)", "T5 construct": "expressed in transfected cells; host or cells: PC3 (AR-negative human prostate cancer cells)", "T5 sequence (P10275 1-920)": "T2 sequence (P10275 1-920 T878A) with A878T", "assay": "ARR3tk-luciferase reporter assay in PC3 cells, wild-type AR", "type": "cell-based", "procedure": "as §2"}, "T877A-AR mutant": {"target": "T6, T877A-AR mutant (Homo sapiens, UniProt P10275, T878A)", "T6 construct": "expressed in transfected cells; host or cells: PC3", "assay": "Luciferase reporter assay in PC3 cells, T877A-AR", "type": "cell-based", "conditions": "presence and absence of R1881", "procedure": "as §2"}, "endogenous wild type AR": {"system": "endogenous wild type AR", "assay": "ARR3tk-luciferase assay in R1-AD1 cells", "type": "cell-based, human", "conditions": "0.1 nM R1881"}, "[7]": {"conditions": "eGFP IC50, LNCaP eGFP cells, 0.1 nM R1881"}}, "note": "Residue numbers refer to the chain shown, from its start."}
{"smiles": "c1cc(-c2csc(N3CCOCC3)n2)cs1", "note": "[Compound 14404, 4-(4-(thiophen-3-yl)thiazol-2-yl)morpholine]", "values": [{"measurement": "Androgen Displacement IC50", "setting": "[1]", "result": "No displacement"}, {"measurement": "anti-AR activity (AR transcriptional inhibition) in words", "setting": "androgen receptor (AR)", "result": "maintained good potency"}, {"measurement": "partial agonistic effect", "setting": "androgen receptor (AR)", "result": "no undesired partial agonistic effect"}, {"measurement": "IC50", "setting": "androgen receptor (AR); eGFP IC50 (μM), Series 1", "result": 0.26, "unit": "µM"}, {"measurement": "IC50", "setting": "androgen receptor (AR); [7]", "result": "0.27 ± 0.02", "unit": "µM"}, {"measurement": "IC50", "setting": "PSA [2]; Series 1", "result": 220, "unit": "nM"}]}
{"smiles": "COc1c(Cl)cc(-c2csc(N3CCOCC3)n2)cc1Cl", "note": "[Compound 14288]", "values": [{"measurement": "digestion of AR DBD by trypsin in presence of compound", "setting": "AR DBD", "result": "not digested"}, {"measurement": "% Inhibition (3 μM)", "setting": "androgen receptor (AR)", "result": 35.89, "unit": "%"}]}
{"smiles": "CC(C)(c1ccc(OCC(O)CO)cc1)c1ccc(OCC(O)CCl)cc1", "note": "(stereo not drawn) [EPI-001]", "values": [{"measurement": "inhibition of AR(1-653) truncation mutant", "setting": "[3]", "result": "~80", "unit": "%"}]}
{"smiles": "CNC(=O)c1ccc(N2C(=S)N(c3ccc(C#N)c(C(F)(F)F)c3)C(=O)C2(C)C)cc1F", "note": "[enzalutamide, reference compound]", "values": [{"measurement": "FKBP5 protein expression, R1-D567 cells", "setting": "FKBP5 [4]", "result": "only affected R1-AD1 cells"}, {"measurement": "IC50 secreted PSA", "setting": "PSA [5]", "result": "sub-micromolar"}, {"measurement": "FKBP5 protein expression, R1-AD1 cells", "setting": "FKBP5 [6]", "result": "only affected R1-AD1 cells"}, {"measurement": "IC50", "setting": "PSA [2]; LNCaP eGFP cells, R1881, secreted PSA", "result": 120, "unit": "nM"}, {"measurement": "effect on ER transcriptional activity", "setting": "ER-α", "result": "considerable cross-reactivity"}]}
{"smiles": "c1cncc(-c2csc(N3CCOCC3)n2)c1", "note": "[Compound 14439]", "values": [{"measurement": "Androgen Displacement IC50", "setting": "[1]", "result": "low displacement"}, {"measurement": "anti-AR activity (AR transcriptional inhibition) in words", "setting": "androgen receptor (AR)", "result": "maintained good potency"}, {"measurement": "partial agonistic effect", "setting": "androgen receptor (AR)", "result": "no undesired partial agonistic effect"}, {"measurement": "inhibition at 3 µM", "setting": "androgen receptor (AR); LNCaP, read-out: % Inhibition (3 μM)", "result": 81, "unit": "%"}, {"measurement": "IC50", "setting": "androgen receptor (AR); [7]", "result": "0.16 ± 0.03", "unit": "µM"}]}
{"smiles": "COc1c(F)cccc1-c1csc(N2CCOCC2)n1", "note": "[Compound 14368]", "values": [{"measurement": "IC50", "setting": "[1]", "result": 31300, "unit": "nM"}, {"measurement": "AR transcriptional activity in the absence of R1881", "setting": "androgen receptor (AR); LNCaP eGFP cells without R1881", "result": "vigorously enhance AR transcriptional activity"}, {"measurement": "IC50", "setting": "androgen receptor (AR); eGFP IC50 (μM), Series 1", "result": 0.03, "unit": "µM"}, {"measurement": "IC50", "setting": "androgen receptor (AR); [7]", "result": 0.035, "unit": "µM"}, {"measurement": "AR transcription, wild type AR, presence of R1881", "setting": "full-length human AR", "result": "inhibited by 14368 in a dose response manner"}, {"measurement": "AR transcriptional activity, wild type AR, absence of androgen", "setting": "full-length human AR", "result": "only a basal level of transcriptional activity"}, {"measurement": "concentration inducing transcriptional activation of T877A AR mutant", "setting": "T877A-AR mutant", "result": "higher than 0.4 μM"}, {"measurement": "agonistic effect at high concentrations", "setting": "endogenous wild type AR", "result": "not observed"}, {"measurement": "IC50", "setting": "PSA [2]; Series 1", "result": 130, "unit": "nM"}]}
